Patent US20240116877A1, “KIT KINASE INHIBITORS AND METHODS OF USE THEREOF” (Deciphera Pharmaceuticals, LLC, priority 2021, published 2024)
Read-outs that look alike come from different tables or passages of the source.

Experiments:
GIST 430 cells = assay: GIST 430 Cell Proliferation Assay (resazurin); type: cell-based; conditions: Homo sapiens; GIST430 cell proliferation
Procedure, shortened: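 Five thousand cells per well were exposed to serially diluted compound in complete growth medium for 115 h at 37 degrees Celsius, 5% CO2. Resazurin was then added for a further 5 h, fluorescence read at 540 nm excitation/600 nm emission, and IC50 values calculated.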

Ba/F3 KIT mutant cells = assay: Ba/F3 mutant KIT Cell Proliferation Assays (resazurin); type: cell-based; conditions: Mus musculus, BaF3
Procedure, shortened: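 IC50 values come from resazurin fluorescence (ex 540, em 600) after 5 h dye exposure, added as a 440 μM solution. Cells were IL-3-independent Ba/F3 expressing mutant KIT from a lentiviral vector, puromycin-selected.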

c-KIT kinase (uKIT) = c-KIT kinase (uKIT) (Homo sapiens (Human), UniProt P10721); assay: Biochemical Assay for uKIT (coupled pyruvate kinase/lactate dehydrogenase assay); conditions: Inhibition of biochemical activity of uKIT kinase; 1 mM ATP
c-KIT kinase (uKIT), sequence (P10721 other isoform, or with tags, fused parts or gaps): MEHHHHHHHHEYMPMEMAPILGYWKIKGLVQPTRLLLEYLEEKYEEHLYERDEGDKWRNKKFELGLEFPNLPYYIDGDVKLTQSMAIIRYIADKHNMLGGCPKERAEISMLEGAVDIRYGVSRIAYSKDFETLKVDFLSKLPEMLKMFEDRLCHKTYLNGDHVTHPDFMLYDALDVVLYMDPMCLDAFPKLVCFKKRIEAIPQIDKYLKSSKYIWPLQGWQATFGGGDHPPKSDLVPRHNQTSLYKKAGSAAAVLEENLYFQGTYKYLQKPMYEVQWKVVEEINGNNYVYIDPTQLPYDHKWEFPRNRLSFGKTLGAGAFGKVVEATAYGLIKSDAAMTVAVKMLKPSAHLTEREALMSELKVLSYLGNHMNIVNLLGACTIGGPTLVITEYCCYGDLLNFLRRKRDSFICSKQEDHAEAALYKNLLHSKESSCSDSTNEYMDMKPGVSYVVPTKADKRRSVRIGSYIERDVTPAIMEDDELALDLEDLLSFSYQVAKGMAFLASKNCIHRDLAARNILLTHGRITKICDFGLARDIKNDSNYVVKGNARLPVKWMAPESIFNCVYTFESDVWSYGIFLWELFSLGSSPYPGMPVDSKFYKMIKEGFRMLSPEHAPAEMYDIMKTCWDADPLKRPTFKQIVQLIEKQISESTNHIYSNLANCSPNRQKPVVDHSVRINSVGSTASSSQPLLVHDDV
Procedure, shortened: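 IC50 from percent inhibition of reaction rate over 2-3 h, relative to no-compound and known-inhibitor controls. KIT enzyme (16 nM or 4.36 nM, two sequences) ran with 1 mM ATP and 0.7 mg/mL PE4Y in Tris pH 7.5, 30° C; ATP turnover coupled to NADH loss at 340 nm.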

[1] = Ba/F3 KIT AYdup-V654A mutant cell proliferation, read-out: AYdup-V654A IC50
[2] = Ba/F3 KIT exon11del-V654A mutant cell proliferation, read-out: exon11del-V654A IC50
[3] = Ba/F3 KIT exon11del-Y823D mutant cell proliferation, read-out: exon11del-Y823D IC50
[4] = Ba/F3 KIT AYdup mutant cell proliferation, read-out: AYdup IC50
[5] = Ba/F3 KIT AYdup-D816G mutant cell proliferation, read-out: AYdup-D816G IC50

Row | SMILES | IC50 (Ba/F3 KIT mutant cells; [1]) [nM] | IC50 (Ba/F3 KIT mutant cells; [2]) [nM] | IC50 (Ba/F3 KIT mutant cells; [3]) [nM] | IC50 (c-KIT kinase (uKIT)) [nM] | IC50 (Ba/F3 KIT mutant cells; [4]) [nM] | IC50 (Ba/F3 KIT mutant cells; [5]) [nM] | IC50 (GIST 430 cells) [nM]
1 | COCCOc1cc(F)c2c(Nc3ccc(NC(=O)CC(=O)NC4(C(C)C)CC4)cc3)ncnc2c1 [Example 128] | 10 to 100 | ≤ 10 | 100 to 1000 | 10 to 100 | – | – | 10 to 100
2 | COCCOc1cc(F)c2c(Nc3ccc(NC(=O)COCC4CCOC4)cc3)ncnc2c1 (stereo not drawn) [Example 59] | 100 to 1000 | 10 to 100 | > 1000 | 10 to 100 | – | – | 10 to 100
3 | COCCOc1cc(F)c2c(Nc3ccc(NC(=O)CC(=O)NC[C@@H]4CCCO4)cc3)ncnc2c1 [Example 121] | 100 to 1000 | 10 to 100 | > 1000 | 100 to 1000 | – | – | 100 to 1000
4 | COCCOc1cc(F)c2c(Nc3ccc(NC(=O)CC(=O)N4CCCC[C@H]4C(F)(F)F)cc3)ncnc2c1 [Example 171] | 10 to 100 | 10 to 100 | ≤ 10 | 10 to 100 | – | – | 10 to 100
5 | CC(C)(C)CNC(=O)CC(=O)Nc1ccc(Nc2ncnc3cc(OCCN4CCOCC4)cc(F)c23)cc1 [Example 145] | 10 to 100 | ≤ 10 | 10 to 100 | 10 to 100 | ≤ 10 | 10 to 100 | 10 to 100
6 | COCCOc1cc(F)c2c(Nc3ccc(NC(=O)CC(=O)N[C@H]4C[C@H](OC)C4)cc3)ncnc2c1 [Example 117] | 10 to 100 | 10 to 100 | > 1000 | 100 to 1000 | – | – | 10 to 100
7 | COCCOc1cc(F)c2c(Nc3ccc(NC(=O)CC(=O)NCC4CCOCC4)cc3)ncnc2c1 [Example 78] | 100 to 1000 | 10 to 100 | > 1000 | 100 to 1000 | – | – | 100 to 1000
8 | COCCOc1cc(F)c2c(Nc3ccc(NC(=O)CC(=O)NC4(C(F)(F)F)CC4)cc3)ncnc2c1 [Example 129] | 10 to 100 | ≤ 10 | > 1000 | 10 to 100 | – | – | 10 to 100
9 | COCCOc1cc(F)c2c(Nc3ccc(NC(=O)CC(=O)N4CCOCC4)cc3)ncnc2c1 [Example 185] | > 1000 | > 1000 | > 1000 | 100 to 1000 | – | – | 100 to 1000
10 | COCCOc1cc(F)c2c(Nc3ccc(NC(=O)CC(=O)N4CCC(C)(C)CC4)cc3)ncnc2c1 [Example 152] | 10 to 100 | 10 to 100 | 100 to 1000 | 10 to 100 | – | – | 10 to 100
11 | COCCOc1cc(F)c2c(Nc3ccc(NC(=O)CC(=O)N4C5CCC4CC5)cc3)ncnc2c1 [Example 188] | 100 to 1000 | 100 to 1000 | 100 to 1000 | 10 to 100 | – | – | 100 to 1000
12 | COCCOc1cc(F)c2c(Nc3ccc(NC(=O)CC(=O)NC4CCC4(C)C)cc3)ncnc2c1 (stereo not drawn) [Example 168] | 10 to 100 | 10 to 100 | 10 to 100 | 10 to 100 | – | – | ≤ 10
13 | COCCOc1cc(F)c2c(Nc3ccc(NC(=O)CC(=O)N4CCCC4C(C)(C)C)cc3)ncnc2c1 (stereo not drawn) [Example 189] | 100 to 1000 | 100 to 1000 | 100 to 1000 | 10 to 100 | – | – | 100 to 1000
14 | COCCOc1cc(F)c2c(Nc3ccc(NC(=O)CC(=O)NC4COC4)cc3)ncnc2c1 [Example 93] | > 1000 | 100 to 1000 | – | 100 to 1000 | – | – | > 1000
15 | COCCOc1cc(OC)c2c(Nc3ccc(NC(=O)CC(=O)N(C)C(C)(C)C)cc3)ncnc2c1 [Example 192] | 10 to 100 | 100 to 1000 | 10 to 100 | 10 to 100 | – | – | 10 to 100

Further lines, with some results ahead:

Row | IC50 (Ba/F3 KIT mutant cells; [1]) [nM] | IC50 (Ba/F3 KIT mutant cells; [2]) [nM] | IC50 (Ba/F3 KIT mutant cells; [3]) [nM] | IC50 (c-KIT kinase (uKIT)) [nM] | IC50 (Ba/F3 KIT mutant cells; [4]) [nM] | IC50 (Ba/F3 KIT mutant cells; [5]) [nM] | SMILES | IC50 (GIST 430 cells) [nM]
16 | > 1000 | > 1000 | – | 100 to 1000 | – | – | COCCOc1cc(F)c2c(Nc3ccc(NC(=O)NCCC4COC4)cc3)ncnc2c1 [Example 27] | > 1000
17 | 10 to 100 | 10 to 100 | 10 to 100 | ≤ 10 | – | – | CN1CC[C@@H](Oc2cc(F)c3c(Nc4ccc(NC(=O)NCCC(C)(C)F)cc4)ncnc3c2)C1 [Example 173] | 10 to 100
18 | 10 to 100 | 10 to 100 | 10 to 100 | ≤ 10 | – | – | CC(C)(F)CCNC(=O)Nc1ccc(Nc2ncnc3cc(OCCC4COC4)cc(F)c23)cc1 [Example 159] | 10 to 100
19 | 10 to 100 | 10 to 100 | 10 to 100 | 10 to 100 | ≤ 10 | 10 to 100 | COCCOc1cc(F)c2c(Nc3ccc(NC(=O)CNC(=O)CC(C)(C)C)cc3)ncnc2c1 [Example 102] | ≤ 10
20 | 100 to 1000 | 10 to 100 | – | 10 to 100 | – | – | CN(C)C(=O)COc1cc(F)c2c(Nc3ccc(NC(=O)NCCC(C)(C)F)cc3)ncnc2c1 [Example 148] | 100 to 1000
21 | 10 to 100 | ≤ 10 | 100 to 1000 | ≤ 10 | – | – | CN(C)CCOc1cc(F)c2c(Nc3ccc(NC(=O)NCCC(C)(C)F)cc3)ncnc2c1 [Example 68] | ≤ 10
22 | 10 to 100 | 10 to 100 | 100 to 1000 | 10 to 100 | – | 10 to 100 | COCCOc1cc(F)c2c(Nc3ccc(NC(=O)CCC(C)(C)OC)cc3)ncnc2c1 [Example 28] | 10 to 100
23 | 10 to 100 | 10 to 100 | 100 to 1000 | ≤ 10 | 10 to 100 | ≤ 10 | COCCOc1cc(F)c2c(Nc3ccc(NC(=O)CCCC(C)C)cc3)ncnc2c1 [Example 31] | 10 to 100
24 | 10 to 100 | 10 to 100 | 10 to 100 | ≤ 10 | – | – | CO[C@@H](C)COc1cc(F)c2c(Nc3ccc(NC(=O)NCCC(C)(C)F)cc3)ncnc2c1 [Example 7, (S)-1-(3-fluoro-3-methylbutyl)-3-(4-((5-fluoro-7-(2-methoxypropoxy)quinazolin-4-yl)amino)phenyl)urea] | 10 to 100
25 | 10 to 100 | ≤ 10 | 10 to 100 | ≤ 10 | ≤ 10 | ≤ 10 | COCCOc1cc(F)c2c(Nc3ccc(NC(=O)NCCC(C)(C)OC)cc3)ncnc2c1 [Example 10] | ≤ 10
26 | 100 to 1000 | ≤ 10 | 100 to 1000 | ≤ 10 | – | – | CC(C)Oc1cc(F)c2c(Nc3ccc(NC(=O)NCCC(C)(C)F)cc3)ncnc2c1 [Example 6, 1-(3-fluoro-3-methylbutyl)-3-(4-((5-fluoro-7-isopropoxyquinazolin-4-yl)amino)phenyl)urea] | 10 to 100
27 | 100 to 1000 | 10 to 100 | > 1000 | 10 to 100 | – | – | COCCOc1cc(F)c2c(Nc3ccc(NC(=O)C4(C(=O)NCC(C)C)CC4)cc3)ncnc2c1 [Example 71] | 100 to 1000
28 | 10 to 100 | 10 to 100 | 100 to 1000 | ≤ 10 | – | – | CC(C)(F)CCNC(=O)Nc1ccc(Nc2ncnc3cc(OC[C@H]4CCOC4)cc(F)c23)cc1 [Example 151] | 10 to 100
29 | 10 to 100 | 10 to 100 | 10 to 100 | ≤ 10 | ≤ 10 | 10 to 100 | COCCOc1cc(F)c2c(Nc3ccc(NC(=O)NCCC4(C#N)CC4)cc3)ncnc2c1 [Example 35] | 10 to 100
30 | 100 to 1000 | 10 to 100 | 100 to 1000 | 10 to 100 | – | – | COCCOc1cc(F)c2c(Nc3ccc(NC(=O)NCCC(C)(C)F)c(F)c3)ncnc2c1 [Example 64] | 10 to 100
31 | 10 to 100 | ≤ 10 | 100 to 1000 | ≤ 10 | – | – | COCCOc1cc(F)c2c(Nc3ccc(NC(=O)NCCC(C)(C)F)cc3F)ncnc2c1 [Example 65] | 10 to 100
32 | ≤ 10 | ≤ 10 | 10 to 100 | ≤ 10 | ≤ 10 | ≤ 10 | COCCOc1cc(F)c2c(Nc3ccc(NC(=O)NCCC(C)C)cc3)ncnc2c1 [Example 18] | 10 to 100
33 | 10 to 100 | ≤ 10 | 10 to 100 | 10 to 100 | ≤ 10 | 10 to 100 | COCCOc1cc(F)c2c(Nc3ccc(NC(=O)CC(=O)NC(C)(C)C(F)(F)F)cc3)ncnc2c1 [Example 130] | 10 to 100
34 | 10 to 100 | ≤ 10 | 10 to 100 | 10 to 100 | ≤ 10 | ≤ 10 | COCCOc1cc(F)c2c(Nc3ccc(NC(=O)NCCC4CCOCC4)cc3)ncnc2c1 [Example 61] | ≤ 10
35 | 10 to 100 | 10 to 100 | 10 to 100 | ≤ 10 | ≤ 10 | 10 to 100 | COCCOc1cc(F)c2c(Nc3ccc(NC(=O)NCCOC(F)(F)F)cc3)ncnc2c1 [Example 42] | 10 to 100
36 | 100 to 1000 | 100 to 1000 | 100 to 1000 | 100 to 1000 | 10 to 100 | 100 to 1000 | COCCOc1cc(F)c2c(Nc3ccc(NC(=O)COCC(F)(F)F)cc3)ncnc2c1 [Example 48] | 100 to 1000
